Columns and labels:
Format in all cases: cell-based
PYL1-HAB1 = target: T1, PYL1-HAB1 (Arabidopsis thaliana, UniProt Q8VZS8); assay: Yeast two-hybrid BD-PYL1 / AD-HAB1 interaction, X-gal stain; settings: 10 μM
T1 construct: BD-PYR/PYL fusion proteins were constructed in the same manner as for BD-PYR1 above; expressed in transfected cells; host or cells: yeast (Y190, as for BD-PYR1)
T1 sequence (Q8VZS8 1-221): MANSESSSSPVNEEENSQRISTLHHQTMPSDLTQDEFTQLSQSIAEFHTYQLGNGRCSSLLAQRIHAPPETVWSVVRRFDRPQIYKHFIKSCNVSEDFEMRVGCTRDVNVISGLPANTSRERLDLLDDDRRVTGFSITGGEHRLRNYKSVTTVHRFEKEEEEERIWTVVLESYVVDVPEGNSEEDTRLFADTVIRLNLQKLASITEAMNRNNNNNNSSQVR
T1 sequence (Q9CAJ0 23-511 partner): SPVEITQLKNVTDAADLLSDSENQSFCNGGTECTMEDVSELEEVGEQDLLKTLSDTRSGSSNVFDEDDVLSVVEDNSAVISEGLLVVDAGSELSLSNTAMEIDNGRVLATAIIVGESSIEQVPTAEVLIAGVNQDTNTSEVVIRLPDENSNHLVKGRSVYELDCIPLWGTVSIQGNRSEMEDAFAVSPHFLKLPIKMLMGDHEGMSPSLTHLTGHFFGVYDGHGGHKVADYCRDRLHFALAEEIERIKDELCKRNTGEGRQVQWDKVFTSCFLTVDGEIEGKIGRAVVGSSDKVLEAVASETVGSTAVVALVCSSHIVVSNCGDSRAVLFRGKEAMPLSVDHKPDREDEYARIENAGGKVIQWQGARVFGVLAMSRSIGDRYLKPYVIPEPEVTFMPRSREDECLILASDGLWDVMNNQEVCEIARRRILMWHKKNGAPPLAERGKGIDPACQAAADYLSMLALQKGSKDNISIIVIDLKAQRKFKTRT
Protocol: Given that PYR1 is necessary for pyrabactin action and is a predicted ligand-binding protein, we hypothesized that pyrabactin agonizes ABA signaling by inducing a protein-protein interaction between PYR1 and a downstream effector. To test this, ˜2 million prey cDNA clones were screened against a PYR1 Y2H bait construct on media containing 10 μM pyrabactin. To create the PYR1 Y2H bait construct, the Pyr1 open reading frame was PCR amplified from genomic DNA and cloned to pGem-T easy vector (Promega). After sequence confirmation, the Pyr1 ORF was then cloned in-frame between EcoRI and SalI sites of the pBD-GAL4 Cam vector (Stratagene) and transformed into yeast strain Y190. For the screen, an etiolated seedling cDNA library (J. Kim, K., Harter, A., Theologis, Proc Natl Acad Sci USA 94, 11786 (Oct. 28, 1997)) (ABRC stock CD4-22) was used. The cDNA library was first converted from phage to plasmid DNA, yielding 7.6×10^7 transformants. Plasmid DNA prepared from library was then used to transform Y190 as described in the GAL4 Two-Hybrid system manual (Stratagene). […] This identified two pyrabactin-dependent hits which sequencing determined encoded cDNAs for the PP2C HAB1, a close relative of the well-characterized ABA response factor ABI1 (A. Saez et al., The Plant Journal 37, 354 (2004); N. Leonhardt et al., THE PLANT CELL 16, 596 (2004)). […]

PYL4-HAB1 = target: T2, PYL4-HAB1 (Arabidopsis thaliana, UniProt O80920); assay: Yeast two-hybrid BD-PYL4 / AD-HAB1 interaction; settings: 10 μM
T2 construct: BD-PYR/PYL fusion proteins were constructed in the same manner as for BD-PYR1 above; expressed in transfected cells; host or cells: yeast (Y190, as for BD-PYR1)
T2 sequence (O80920 1-207): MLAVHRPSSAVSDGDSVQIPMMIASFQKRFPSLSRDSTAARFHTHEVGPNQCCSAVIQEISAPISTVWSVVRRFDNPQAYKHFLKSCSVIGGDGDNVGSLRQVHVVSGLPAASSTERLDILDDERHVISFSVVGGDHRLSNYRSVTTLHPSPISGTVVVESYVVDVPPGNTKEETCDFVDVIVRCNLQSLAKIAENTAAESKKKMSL
T2 sequence (Q9CAJ0 23-511 partner): T1 sequence (Q9CAJ0 23-511 partner)
Protocol: (§1) Given that PYR1 is necessary for pyrabactin action and is a predicted ligand-binding protein, we hypothesized that pyrabactin agonizes ABA signaling by inducing a protein-protein interaction between PYR1 and a downstream effector. To test this, ˜2 million prey cDNA clones were screened against a PYR1 Y2H bait construct on media containing 10 μM pyrabactin. To create the PYR1 Y2H bait construct, the Pyr1 open reading frame was PCR amplified from genomic DNA and cloned to pGem-T easy vector (Promega). After sequence confirmation, the Pyr1 ORF was then cloned in-frame between EcoRI and SalI sites of the pBD-GAL4 Cam vector (Stratagene) and transformed into yeast strain Y190. For the screen, an etiolated seedling cDNA library (J. Kim, K., Harter, A., Theologis, Proc Natl Acad Sci USA 94, 11786 (Oct. 28, 1997)) (ABRC stock CD4-22) was used. The cDNA library was first converted from phage to plasmid DNA, yielding 7.6×10^7 transformants. Plasmid DNA prepared from library was then used to transform Y190 as described in the GAL4 Two-Hybrid system manual (Stratagene). For each screen, 40 μg of prey plasmid was transformed into 1 ml of competent Y190 cell harboring bait construct and then grown on SD agar plates lacking His, Leu, and Trp, but containing 15 mM 3-AT and 10 μM pyrabactin. After 4 days incubation at 30° C., well-grown colonies were rescued and interactions validated using filter lift assay or chloroform-agarose overlay method and X-Gal staining. This identified two pyrabactin-dependent hits which sequencing determined encoded cDNAs for the PP2C HAB1, a close relative of the well-characterized ABA response factor ABI1 (A. Saez et al., The Plant Journal 37, 354 (2004); N. Leonhardt et al., THE PLANT CELL 16, 596 (2004)). Next, Y2H strains expressing an AD-HAB1 fusion protein and a BD-PYR1 fusion protein were grown on plates and tested for interactions in response to various compounds, all at 10 μM except for epi-brassinolide (50 nM) and dimethyl sulfoxide (DMSO) (carrier solvent, 1%). […] Thus, PYR1 interacts with HAB1 in a (+)-ABA dependent fashion.
To see if ABA and pyrabactin responsiveness is unique to PYR1, we tested 11 of the 13 PYL proteins as described above, using Y2H strains expressing an AD-HAB1 fusion protein and a BD-PYR/PYL fusion protein (listed at the left of FIG. 3A). BD-PYR/PYL fusion proteins were constructed in the same manner as for BD-PYR1 above. […] Of these, only Pyr1 is highly transcribed in seeds, which likely explains why mutations in Pyr1 cause the seeds to be insensitive to pyrabactin. […] However the interactions of PYLs 5-12 with the PP2Cs are indicative that the entire protein family is likely to share a similar mechanism of action involving PP2C modulation, as we describe below. […]

PYR1-HAB1 = target: T3, PYR1-HAB1 (Arabidopsis thaliana, UniProt O49686); assay: Yeast two-hybrid BD-PYR1 / AD-HAB1 interaction, X-gal stain; settings: 10 μM, except epi-brassinolide (50 nM)
T3 construct: the Pyr1 open reading frame was PCR amplified from genomic DNA; expressed in transfected cells; host or cells: yeast strain Y190
T3 sequence (O49686 1-191): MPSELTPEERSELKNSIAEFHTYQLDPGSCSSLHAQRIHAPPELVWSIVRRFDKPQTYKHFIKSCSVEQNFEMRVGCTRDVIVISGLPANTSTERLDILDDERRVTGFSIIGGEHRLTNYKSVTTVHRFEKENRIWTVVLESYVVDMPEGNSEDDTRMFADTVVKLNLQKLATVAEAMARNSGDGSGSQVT
T3 sequence (Q9CAJ0 23-511 partner): T1 sequence (Q9CAJ0 23-511 partner)
Protocol: as §1

Row | Compound | PYL1-HAB1 interaction by X-gal stain (PYL1-HAB1) | PYL4-HAB1 interaction by X-gal stain (PYL4-HAB1) | PYR1-HAB1 interaction by X-gal stain (PYR1-HAB1)
1 | CC1=CC(=O)CC(C)(C)[C@@]1(O)/C=C/C(C)=C\C(=O)O [ABA, Abscisic acid] | interact with HAB1 in an ABA-stimulated manner | interact with HAB1 in an ABA-stimulated manner | 
2 | O=S(=O)(NCc1ccccn1)c1ccc(Br)c2ccccc12 [pyrabactin] | promotes interactions |  | promotes interactions
3 | CC1=CC(=O)CC(C)(C)C1(O)/C=C/C(C)=C\C(=O)O (single isomer, unassigned; (+)) [(+)-ABA] |  | respond | strong interactions

Source: patent publication US10221426B2, “Constitutively active PYR/PYL receptor proteins for improving plant stress tolerance” (The Regents of the University of California, priority 2009, dated 2019)
